Measurements published in patent publication US4943636A, “Certain pyridyl-di-sulfide-alkylenecarbonxylate-ortho-nitro-phenylsulfonic acid esters useful for coupling biological materials” (Cetus Corporation, priority 1987, dated 1990).
Like-named read-outs stand apart in the source and are kept apart here.

Assays:
[1] = tested on: sheep red blood cells (SRBC); assay: Labelling of sheep red blood cells, cytofluorometry; assay type: cell-based; settings: excitation at 360 nm
Method: Dansyl-sac-HNSA ester was prepared as described in Example 1A using molar equivalents of HNSA, dicyclohexylcarbodiimide and dansyl-ε-aminocaproic acid (from Sigma Chemicals). For use in coupling to sheep red blood cells (SRBC) the dansyl-sac-HNSA ester (50 mg) was prepared in 7 ml of 0.28 M cacodylate buffer, pH 6.9.
Sheep red blood cells were washed 4 times (400×g, 8 minutes) in G-PBS buffer (5% α-D-glucose w/v in PBSCa-Mg). To 1 ml of packed red blood cells was added the 7 ml of dansyl-sac-HNSA ester dropwise with gentle mixing for 10 minutes at room temperature. The reaction was done in foil-wrapped glassware to protect against photodecomposition. Following the reaction the cells were washed in cold G-PBS buffer containing 1% heat inactivated (56° C., 30 minutes) FCS (fetal calf serum) until the supernatants were colorless (a minimum of 4 washes).
The dansyl-sac-HNSA labelled SRBC were monitored using a Coulter EPICS V Cytofluorometer immediately after labeling and at 24 hours. […] This translates to an increase in intensity 720 times over unlabeled cells.

[2] = Solubility in water / physical properties; assay type: physicochemical
cells = settings: reacted with fluoresceinated avidin; compared with biotin-p-nitrophenyl ester; cited from earlier work
bovine serum albumin = settings: pH 8.5; compared with same ester of N-hydroxysuccinimide; cited from earlier work
[3] = tested on: bovine serum albumin (BSA); settings: for Percent Ester Remaining in Solution: pH 7.5, room temperature
Method: (§1) About 0.5 mg of the purified mal-sac HNSA ester from Example 1A was dissolved in 1 ml of distilled water.
The difference between the post-base and initial free HNSA concentration represents the concentration of ester. From the actual concentration of ester the amount of ester to be added to the protein solution to achieve the desired degree of substitution can be calculated.
A total of 22 mg ([…]) of BSA (of molecular weight 66,296) was dissolved in 2.0 ml of 0.01 M phosphate buffer at pH 7.5 to yield a total amino concentration of 1.0×10^-2 moles per liter (assuming 59 lysines/BSA molecule). […] The reaction was carried out at room temperature. […]

[4] = prior-art agents; cited from earlier work
biotinylated polylysine = settings: over a 30 minute period; pH 7.4
Method: Biotinylated polylysine (0.6 ml; 73,000 D average mol. wt.) was adjusted to pH 7.4 with 0.015 ml of 2.5 N NaOH. Approximately 5 mg of mal-sac-HNSA was added to the biotinylated polylysine and stirred at room temperature. Ten μl aliquots were removed from the mixture at timed intervals and diluted into 1.0 ml of 0.01 M phosphate buffer at pH 7.0. The spectrum of each diluted aliquot was measured and the absorbance at 406 nm recorded. A total of 50 μl of 4.8 N NaOH solution was then added to each aliquot, mixed, and the spectrum retaken.
After 30 minutes of incubation time, the reaction was stopped using a Sephadex G-25 column, and the high molecular weight (biotin)4 -polylysine-(sac-mal)18 was well separated from excess HNSA and unreacted mal-sac-HNSA.

[5] = Hydrolysis of ester by sodium hydroxide; assay type: physicochemical; settings: 4.8 N sodium hydroxide added, pH 7.0 phosphate buffer aliquot
Method: as §1

Stability in water = assay type: physicochemical; settings: no nucleophiles added
streptavidin = tested on: streptavidin; set-up: species or system Streptomyces avidinii
Method: A total of 0.26 mg (4.3×10^-3 μmoles) of streptavidin purified from Streptomyces avidinii by the method of Hoffman et al., PNAS, 77, 4666-4668 (1980) was dissolved in 1.0 ml of phosphate buffered saline at pH 7.4 to yield a total amine concentration of 6.93×10^-5 M (16 NH2 /streptavidin). […] Good separation was achieved between the protein and the excess HNSA and unreacted HNSA ester. […] In this case […] of the amino groups on streptavidin (12.9 out of 16.0) reacted.

Storage stability = assay type: physicochemical; settings: purified ester, stored desiccated
[6] = tested on: Horseradish Peroxidase (HRP); settings: over a 30 minute period; pH 7.0
Method: A total of 40 mg (1.0 μmoles) of HRP (Sigma Chemical Co.) was dissolved in 0.5 ml of 0.1 M phosphate buffer at pH 7.0 to yield an amine concentration of 3.7×10^-3 M. Then, 5 mg (1.1×10^-5 moles) of the mal-sac HNSA ester of Example 1A, calculated from the data in Example 2A, was dissolved in 0.5 ml of the HRP solution. The mixture was stirred at room temperature. Five μl aliquots were removed from the incubating solution at timed intervals and were each diluted into 1.0 ml of 0.01 M sodium phosphate buffer at pH 7.0. The spectrum of each diluted aliguot was recorded and the absorbance at 406 nm measured. A total of 50 μl of 4.8 N NaOH was then added to each aliquot, each aliquot was mixed and its spectrum retaken and the absorbance at 406 nm measured. Because HRP has an absorbance at 406 nm due to its heme group and this absorbance changes after addition of sodium hydroxide, corrections for the absorbances due to the HRP were made on every dilution.
After 30 minutes the reaction was stopped using a Sephadex G-25 column as described in Example 2A. Fractions were collected and measured for absorbance at 406 nm and 280 nm.

avidin = settings: for Percent Ester Remaining: room temperature
Method: A total of 220 μl of an aqueous solution of 4.65 mg of avidin per ml of solution (27 amino groups per avidin molecule) was charged to a siliconized glass tube with a stir bar. Approximately 1.5 mg of the mal-sac HNSA ester of Example 1A (of 88.5% purity), calculated from the data of Example 2A, was added and the mixture stirred at room temperature. Ten μl aliquots of the mixture were removed and added to 1.0 ml of 10 mM phosphate buffer at pH 7.0 at timed intervals. The spectrum of each aliquot was taken and then 50 μl of 4.8 N NaOH solution was added to each aliquot and the spectrum was retaken.

[7] = pH 7.4; cited from earlier work

Compound: CN(C)c1cccc2c(S(=O)(=O)NCCCCCC(=O)Oc3ccc(S(=O)(=O)O)cc3[N+](=O)[O-])cccc12 [dansyl-sac-HNSA]
- increase in intensity over unlabeled cells [1]: 720 times

Compound: O=C(CCSSc1ccccn1)Oc1ccc(S(=O)(=O)O)cc1[N+](=O)[O-] [3-(2-pyridyldithio)propionyl-HNSA, 3-(2-pyridyldithio)propionyl-HNSA ester]
- physical properties relative to mal-sac HNSA ester [2]: essentially the same properties

Compound: O=C1N[C@H]2[C@H](CS[C@H]2CCCCC(=O)Oc2ccc(S(=O)(=O)O)cc2[N+](=O)[O-])N1 [biotin-HNSA]
- increase in fluorescence of treated cells (cells): much larger increase in fluorescence
- physical properties relative to mal-sac HNSA ester [2]: essentially the same physical properties
- amino groups of the polylysine polypeptide reacted (polylysine; 7 minutes): 28%
- reaction rate (polylysine; over a 5 minute period, pH 7.4): essentially linear

Compound: O=C(CCCCCNc1ccc([N+](=O)[O-])cc1[N+](=O)[O-])Oc1ccc(S(=O)(=O)O)cc1[N+](=O)[O-] [N-2,4-dinitrophenyl-6-aminocaproic acid ester of HNSA]
- efficiency in conjugating to bovine serum albumin (bovine serum albumin): more efficient

Compound: mal-sac-BSA: product of the first reaction of mal-sac-HNSA ester with bovine serum albumin
- mal-sac groups per molecule ([3]; 15 minutes): 16 mal-sac groups per molecule

Compound: O=C(CCSSc1ccccn1)ON1C(=O)CCC1=O [SPDP, N-succinimidyl-3-(2-pyridyldithio)propionate]
- water solubility [4]: lack of water solubility

Compound: O=C(CCCCCN1C(=O)C=CC1=O)Oc1ccc(S(=O)(=O)O)cc1[N+](=O)[O-] [mal-sac-HNSA, N-maleimido-6-aminocaproyl-HNSA]
- reaction rate (biotinylated polylysine): essentially linear
- hydrolysis by hydroxide [5]: rapidly hydrolyzed
- stability in water (Stability in water): stable in water for several hours
- Concentration of Ester ([3]; 0 minutes): 0.000156 mol/L
- Percent Ester Remaining in Solution ([3]; 0 minutes): 94.0%
- Concentration of Ester ([3]; 5 minutes): 0.000116 mol/L
- Percent Ester Remaining in Solution ([3]; 5 minutes): 82.9%
- Concentration of Ester ([3]; 9 minutes): 0.000103 mol/L
- Percent Ester Remaining in Solution ([3]; 9 minutes): 78.3%
- Concentration of Ester ([3]; 14 minutes): 0.000111 mol/L
- Percent Ester Remaining in Solution ([3]; 14 minutes): 74.5%
- ester reacted ([3]; 15 minutes): 0.0026 mol/L
- ε-amino groups of BSA substituted ([3]; 15 minutes, of 59 ε-amino groups): 25.9%
- Concentration of HNSA ([3]; With NaOH, 0 minutes): 0.000166 mol/L
- Concentration of HNSA ([3]; With NaOH, 5 minutes): 0.00014 mol/L
- Concentration of HNSA ([3]; With NaOH, 9 minutes): 0.000132 mol/L
- Concentration of HNSA ([3]; With NaOH, 14 minutes): 0.000149 mol/L
- Concentration of HNSA ([3]; Without NaOH, 0 minutes): 1.03e-05 mol/L
- Concentration of HNSA ([3]; Without NaOH, 5 minutes): 2.44e-05 mol/L
- Concentration of HNSA ([3]; Without NaOH, 9 minutes): 2.87e-05 mol/L
- Concentration of HNSA ([3]; Without NaOH, 14 minutes): 3.77e-05 mol/L
- reaction rate ([3]; over a 15 minute period): essentially linear
- solubility in water [2]: dissolve fully in water
- amino groups on streptavidin reacted (streptavidin; 20 minutes): 79%
- number of amino groups on streptavidin reacted (streptavidin; 20 minutes, out of 16.0): 12.9
- reaction rate (streptavidin; over the period measured, pH 7.4): essentially linear
- storage stability (Storage stability): stable for extended periods
- reaction rate [6]: essentially linear
- Percent Ester Remaining (avidin; 0 minutes): 89%
- Percent Ester Remaining (avidin; 5 minutes): 86%
- Percent Ester Remaining (avidin; 20 minutes): 78%
- amino groups of avidin reacted (avidin; 30 minutes, 27 amino groups per avidin molecule): 13.5 amino groups
- Percent Ester Remaining (avidin; 30 minutes): 73%
- reaction rate (avidin; FIG. 3): linear

Compound: O=C(CNC(=O)OCc1ccccc1)Oc1ccc(S(=O)(=O)O)cc1[N+](=O)[O-] [Z-gly-HNSA, N-benzyloxycarbonyl-gly-HNSA]
- rate of aminolysis by glycine relative to hydrolysis rate [7]: considerably higher than its hydrolysis rate
